Laboratory results from patent US12336981B2, “Compounds and compositions for the inhibition of NAMPT” (Valo Health, Inc., priority 2010, dated 2025).
Read-outs that look alike come from different tables or passages of the source.

What was measured:
[1] = test system: A2780 cells; experiment: In-vitro cell proliferation assay (SRB), A2780 cells; type: cell-based; conditions: Homo sapiens, A2780, 72 h, A2780 cells, 72 hours, read-out: A2780 IC50
Method in brief: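 Proliferation is assessed by sulforhodamine B staining following a 72-hour incubation with compound dilutions containing 0.1% DMSO.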

[2] = target: T1, NAMPT (Homo sapiens, UniProt P43490); experiment: Biochemical inhibition assay: NAMPT enzymatic reaction, NMN quantified by mass spectrometry; conditions: read-out: Biochem IC50
T1 construct: His tag; host or cells: E. coli
Method in brief: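 Inhibition of E. coli-expressed His-tagged human NAMPT, measured as NMN formation by mass spectrometry after a 30 min room-temperature reaction containing 1 μM NAM, 100 μM PRPP and 2.5 mM ATP.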

T1 sequence (P43490 whole entry): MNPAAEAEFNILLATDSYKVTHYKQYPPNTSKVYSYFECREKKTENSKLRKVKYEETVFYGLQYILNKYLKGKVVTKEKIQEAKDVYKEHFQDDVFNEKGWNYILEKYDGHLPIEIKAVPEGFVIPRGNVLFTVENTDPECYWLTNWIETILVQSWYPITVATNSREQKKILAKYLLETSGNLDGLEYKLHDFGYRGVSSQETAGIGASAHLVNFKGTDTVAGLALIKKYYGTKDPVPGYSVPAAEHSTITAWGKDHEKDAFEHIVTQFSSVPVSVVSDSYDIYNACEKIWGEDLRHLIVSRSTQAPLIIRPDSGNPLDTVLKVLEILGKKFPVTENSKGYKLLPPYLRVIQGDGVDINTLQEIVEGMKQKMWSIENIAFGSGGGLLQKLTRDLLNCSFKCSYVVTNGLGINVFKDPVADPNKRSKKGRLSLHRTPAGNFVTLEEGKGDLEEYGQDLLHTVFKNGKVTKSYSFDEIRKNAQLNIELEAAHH

Row | SMILES | IC50 ([1]; SRB assay) [nM] | IC50 ([2]; NAMPT enzymatic reaction) [nM] | IC50 ([1]; SRB) [nM] | IC50 ([2]; NAMPT enzymatic assay) [nM]
1 | Cc1ccccc1S(=O)(=O)c1ccc(CNC(=O)c2cc3ccncc3s2)cc1 [N-({4-[(2-methylbenzene)sulfonyl]phenyl}methyl)thieno[2,3-c]pyridine-2-carboxamide] | 22.2 | 10 | – | –
2 | CCCCOc1ccc(Cl)cc1S(=O)(=O)c1ccc(CNC(=O)c2cc3ccncc3o2)cc1 | – | 24.3 | 66.3 | –
3 | Cc1cn(C)c(S(=O)(=O)c2ccc(CNC(=O)c3cc4ccncc4o3)cc2)n1 [N-{[4-(1,4-dimethyl-1H-imidazole-2-sulfonyl)phenyl]methyl}furo[2,3-c]pyridine-2-carboxamide] | – | – | 100 to 1000 | 60.7
4 | CC(=O)c1cccc(S(=O)(=O)c2ccc(CNC(=O)c3cnc4[nH]ncc4c3)cc2)c1 | – | 10 | 12.9 | –
5 | COc1ccc(OC)c(S(=O)(=O)c2ccc(CNC(=O)c3cc4ccncc4s3)cc2)c1 [N-({4-[(2,5-dimethoxybenzene)sulfonyl]phenyl}methyl)thieno[2,3-c]pyridine-2-carboxamide] | – | – | 2.3 | 4
6 | O=C(NCc1ccc(S(=O)(=O)c2ccc(C(F)(F)F)cc2Cl)cc1)c1cnc2[nH]ncc2c1 [N-[(4-{[2-chloro-4-(trifluoromethyl)benzene]sulfonyl}phenyl)methyl]-1H-pyrazolo[3,4-b]pyridine-5-carboxamide] | – | – | 86.9 | 114
7 | O=C(NCc1ccc(S(=O)(=O)c2cnn(-c3ccc(F)cc3)c2)cc1)c1cc2ccncc2o1 [N-({4-[1-(4-fluorophenyl)-1H-pyrazole-4-sulfonyl]phenyl}methyl)furo[2,3-c]pyridine-2-carboxamide] | – | – | 7.4 | 6.9
8 | O=C(NCc1ccc(S(=O)(=O)c2cc(Cl)cc(CO)c2)cc1)c1ccc2nccn2c1 | – | – | 1.4 | 5.8
9 | O=C(NCc1ccc(S(=O)(=O)c2cccc(N3CCCC3)c2)cc1)c1ccc2nccn2c1 | – | – | 1.6 | 13.6
10 | COc1ccc(S(=O)(=O)c2ccc(CNC(=O)c3cnc4[nH]ncc4c3)cc2)c(C(F)(F)F)c1 [N-[(4-{[4-methoxy-2-(trifluoromethyl)benzene]sulfonyl}phenyl)methyl]-1H-pyrazolo[3,4-b]pyridine-5-carboxamide] | – | – | 62.8 | 86.8
11 | O=C(NCc1ccc(S(=O)(=O)c2ccccc2)cc1)c1c[nH]c2ccncc12 [N-{[4-(benzenesulfonyl)phenyl]methyl}-1H-pyrrolo[3,2-c]pyridine-3-carboxamide] | – | – | 2060 | 1910
12 | COc1ccc(NS(=O)(=O)c2ccc(CNC(=O)c3cc4cnccc4[nH]3)cc2)c(OC)c1 [N-({4-[(2,4-dimethoxyphenyl)sulfamoyl]phenyl}methyl)-1H-pyrrolo[3,2-c]pyridine-2-carboxamide] | – | – | 6.9 | 5.8
13 | O=C(NCc1ccc(S(=O)(=O)c2cccc(F)c2)cc1)c1cc2ccncc2o1 [N-({4-[(3-fluorobenzene)sulfonyl]phenyl}methyl)furo[2,3-c]pyridine-2-carboxamide] | – | 5.8 | 14.5 | –
14 | CC(C)Oc1ccc(S(=O)(=O)c2ccc(CNC(=O)c3cnc4[nH]ncc4c3)cc2)cc1 [N-[(4-{[4-(propan-2-yloxy)benzene]sulfonyl}phenyl)methyl]-1H-pyrazolo[3,4-b]pyridine-5-carboxamide] | – | – | 6.6 | 8
15 | COc1cc(OC)cc(S(=O)(=O)c2ccc(CNC(=O)c3cc4ccncc4s3)cc2)c1 | – | 1.3 | 0.9 | –
16 | COc1ccc(OC(F)(F)F)cc1S(=O)(=O)c1ccc(CNC(=O)c2cc3cnccc3[nH]2)cc1 | – | – | 6.6 | 48.1
17 | CC(C)COc1ccc(S(=O)(=O)c2ccc(CNC(=O)c3cc4cnccc4[nH]3)cc2)cc1 | – | – | 9.4 | 12.7
18 | O=C(NCc1ccc(S(=O)(=O)c2ccccc2)cc1)N1CCc2[nH]cnc2C1 [N-{[4-(benzenesulfonyl)phenyl]methyl}-1H,4H,5H,6H,7H-imidazo[4,5-c]pyridine-5-carboxamide] | > 2000 | > 2000 | – | –

Row | SMILES | IC50 ([1]; SRB assay) [nM] | IC50 ([2]; NAMPT enzymatic reaction) [nM] | IC50 ([1]; SRB) [nM] | IC50 ([2]; NAMPT enzymatic assay) [nM]
19 | Cn1cc(S(=O)(=O)c2ccc(CNC(=O)c3cnc4[nH]ncc4c3)cc2)cn1 [N-{[4-(1-methyl-1H-pyrazole-4-sulfonyl)phenyl]methyl}-1H-pyrazolo[3,4-b]pyridine-5-carboxamide] | – | – | 100 to 1000 | 182
20 | Cc1ccc(S(=O)(=O)c2ccc(CNC(=O)c3cnc4nccn4c3)cc2)cc1Cl | – | 1.8 | 1.2 | –
21 | Cc1ccc(S(=O)(=O)c2ccc(CNC(=O)c3cc4cnccc4[nH]3)cc2)cc1 [N-({4-[(4-methylbenzene)sulfonyl]phenyl}methyl)-1H-pyrrolo[3,2-c]pyridine-2-carboxamide] | 9 | 6 | – | –
22 | Cc1ccc(S(=O)(=O)c2ccc(CNC(=O)c3cnc4[nH]ncc4c3)cc2)cc1C | – | 5.1 | 3.4 | –
23 | Cc1ccc(S(=O)(=O)c2ccc(CNC(=O)c3cc4ccncc4o3)cc2)c(F)c1 | – | 12.3 | 25.3 | –
24 | O=C(NCc1ccc(S(=O)(=O)c2cnc3n2CCCCC3)cc1)c1cnc2nccn2c1 [N-[(4-{5H,6H,7H,8H,9H-imidazo[1,2-a]azepine-3-sulfonyl}phenyl)methyl]imidazo[1,2-a]pyrimidine-6-carboxamide] | – | – | 28.7 | 1.1
25 | COc1ccc(F)c(S(=O)(=O)c2ccc(CNC(=O)c3cnc4nccn4c3)cc2)c1 | – | 10.4 | 62.9 | –
26 | O=C(NCc1ccc(S(=O)(=O)c2cncc(N3CCCC3)c2)cc1)c1ccc2ncsc2c1 [N-({4-[5-(pyrrolidin-1-yl)pyridine-3-sulfonyl]phenyl}methyl)-1,3-benzothiazole-6-carboxamide] | – | – | 100 to 1000 | 9.2
27 | O=C(NCc1ccc(S(=O)(=O)c2cccc3ccccc23)cc1)c1cnc2[nH]ncc2c1 [N-{[4-(naphthalene-1-sulfonyl)phenyl]methyl}-1H-pyrazolo[3,4-b]pyridine-5-carboxamide] | – | – | 3.68 | 9.1
28 | O=C(NCc1ccc(S(=O)(=O)c2ccc(Cl)c(Cl)c2)cc1)c1cnc2nccn2c1 | – | 1.5 | 1.7 | –
29 | Cc1cc(C)n(-c2cccc(S(=O)(=O)c3ccc(CNC(=O)c4cc5ccncc5o4)cc3)c2)n1 | – | – | 3.5 | 7.1
30 | CCCOc1ccc(Cl)cc1S(=O)(=O)c1ccc(CNC(=O)c2cnc3[nH]ncc3c2)cc1 [N-({4-[(5-chloro-2-propoxybenzene)sulfonyl]phenyl}methyl)-1H-pyrazolo[3,4-b]pyridine-5-carboxamide] | – | 49.2 | 25.1 | –
31 | O=C(NCc1ccc(S(=O)(=O)c2ccc(F)cc2Cl)cc1)c1cc2ccncc2o1 | – | 17.8 | 63.4 | –
32 | Cc1cccc(S(=O)(=O)c2ccc(CNC(=O)c3ccc4nccn4c3)cc2)c1F | – | 7.5 | 3.3 | –
33 | O=C(NCc1ccc(S(=O)(=O)c2c(F)cccc2Cl)cc1)c1ccc2nccn2c1 | – | 172 | 76.6 | –
34 | O=C(NCc1ccc(S(=O)(=O)c2cnc3ccc(Cl)cn23)cc1)c1cnc2[nH]ncc2c1 [N-[(4-{6-chloroimidazo[1,2-a]pyridine-3-sulfonyl}phenyl)methyl]-1H-pyrazolo[3,4-b]pyridine-5-carboxamide] | – | – | 0.8 | 3.3
35 | Cc1c(Cl)cccc1S(=O)(=O)c1ccc(CNC(=O)c2cc3ccncc3o2)cc1 | – | 2.6 | 1.6 | –
36 | CN(C)C(=O)c1ccccc1S(=O)(=O)c1ccc(CNC(=O)c2cc3ccncc3s2)cc1 | – | – | 100 to 1000 | 100 to 1000
